In ChEMBL document CHEMBL4715697, “Synthesis and biological activity of benzamide DNA minor groove binders” (2016):

Assays:
Type in all cases: functional
[1] = system: NCI-H23; assay: Growth inhibition of human NCI-H23 cells assessed as cell growth at 0.01 uM incubated for 48 hrs by sulforhodamine B assay relative to control; conditions: read-out: Activity
[2] = system: NCI-H322M; assay: Growth inhibition of human NCI-H322M cells assessed as cell growth at 0.01 uM incubated for 48 hrs by sulforhodamine B assay relative to control; conditions: read-out: Activity
[3] = system: SW-620; assay: Growth inhibition of human SW-620 cells assessed as cell growth at 0.01 uM incubated for 48 hrs by sulforhodamine B assay relative to control; conditions: read-out: Activity
[4] = system: MDA-MB-468; assay: Growth inhibition of human MDA-MB-468 cells assessed as cell growth at 0.01 uM incubated for 48 hrs by sulforhodamine B assay relative to control; conditions: read-out: Activity
[5] = system: KM12; assay: Growth inhibition of human KM12 cells assessed as cell growth at 0.1 uM incubated for 48 hrs by sulforhodamine B assay relative to control; conditions: read-out: Activity
[6] = system: LOX IMVI; assay: Growth inhibition of human LOX IMVI cells assessed as cell growth at 0.1 uM incubated for 48 hrs by sulforhodamine B assay relative to control; conditions: read-out: Activity
[7] = system: SK-MEL-2; assay: Growth inhibition of human SK-MEL-2 cells assessed as cell growth at 0.1 uM incubated for 48 hrs by sulforhodamine B assay relative to control; conditions: read-out: Activity
[8] = system: SK-MEL-28; assay: Growth inhibition of human SK-MEL-28 cells assessed as cell growth at 0.1 uM incubated for 48 hrs by sulforhodamine B assay relative to control; conditions: read-out: Activity
[9] = system: UO-31; assay: Growth inhibition of human UO-31 cells assessed as cell growth at 0.1 uM incubated for 48 hrs by sulforhodamine B assay relative to control; conditions: read-out: Activity
[10] = system: K562; assay: Growth inhibition of human K562 cells assessed as cell growth at 1 uM incubated for 48 hrs by sulforhodamine B assay relative to control; conditions: read-out: Activity
[11] = system: MOLT-4; assay: Growth inhibition of human MOLT-4 cells assessed as cell growth at 1 uM incubated for 48 hrs by sulforhodamine B assay relative to control; conditions: read-out: Activity
[12] = system: SK-MEL-2; assay: Growth inhibition of human SK-MEL-2 cells assessed as cell growth at 1 uM incubated for 48 hrs by sulforhodamine B assay relative to control; conditions: read-out: Activity
[13] = system: IGROV-1; assay: Growth inhibition of human IGROV-1 cells assessed as cell growth at 1 uM incubated for 48 hrs by sulforhodamine B assay relative to control; conditions: read-out: Activity
[14] = system: TK-10; assay: Growth inhibition of human TK-10 cells assessed as cell growth at 1 uM incubated for 48 hrs by sulforhodamine B assay relative to control; conditions: read-out: Activity
[15] = system: RPMI-8226; assay: Growth inhibition of human RPMI-8226 cells assessed as cell growth at 100 uM incubated for 48 hrs by sulforhodamine B assay relative to control; conditions: read-out: Activity
[16] = system: SR; assay: Growth inhibition of human SR cells assessed as cell growth at 100 uM incubated for 48 hrs by sulforhodamine B assay relative to control; conditions: read-out: Activity
[17] = system: EKVX; assay: Growth inhibition of human EKVX cells assessed as cell growth at 100 uM incubated for 48 hrs by sulforhodamine B assay relative to control; conditions: read-out: Activity
[18] = system: HOP-62; assay: Growth inhibition of human HOP-62 cells assessed as cell growth at 100 uM incubated for 48 hrs by sulforhodamine B assay relative to control; conditions: read-out: Activity
[19] = system: NCI-H522; assay: Growth inhibition of human NCI-H522 cells assessed as cell growth at 100 uM incubated for 48 hrs by sulforhodamine B assay relative to control; conditions: read-out: Activity
[20] = system: COLO 205; assay: Growth inhibition of human COLO 205 cells assessed as cell growth at 100 uM incubated for 48 hrs by sulforhodamine B assay relative to control; conditions: read-out: Activity
[21] = system: M14; assay: Growth inhibition of human M14 cells assessed as cell growth at 100 uM incubated for 48 hrs by sulforhodamine B assay relative to control; conditions: read-out: Activity
[22] = system: SN12C; assay: Growth inhibition of human SN12C cells assessed as cell growth at 100 uM incubated for 48 hrs by sulforhodamine B assay relative to control; conditions: read-out: Activity
[23] = system: UO-31; assay: Growth inhibition of human UO-31 cells assessed as cell growth at 100 uM incubated for 48 hrs by sulforhodamine B assay relative to control; conditions: read-out: Activity
[24] = system: CCRF-CEM; assay: Growth inhibition of human CCRF-CEM cells incubated for 48 hrs by sulforhodamine B assay
[25] = system: MOLT-4; assay: Growth inhibition of human MOLT-4 cells incubated for 48 hrs by sulforhodamine B assay
[26] = system: SR; assay: Growth inhibition of human SR cells incubated for 48 hrs by sulforhodamine B assay
[27] = system: NCI-H226; assay: Growth inhibition of human NCI-H226 cells incubated for 48 hrs by sulforhodamine B assay
[28] = system: COLO 205; assay: Growth inhibition of human COLO 205 cells incubated for 48 hrs by sulforhodamine B assay
[29] = system: HCT-15; assay: Growth inhibition of human HCT-15 cells incubated for 48 hrs by sulforhodamine B assay
[30] = system: SF-295; assay: Growth inhibition of human SF-295 cells incubated for 48 hrs by sulforhodamine B assay
[31] = system: SF-539; assay: Growth inhibition of human SF-539 cells incubated for 48 hrs by sulforhodamine B assay
[32] = system: CAKI-1; assay: Growth inhibition of human CAKI-1 cells incubated for 48 hrs by sulforhodamine B assay
[33] = read-out: LC50 (the source's name)
[34] = read-out: pLC50 (the source's name) (converted)

SMILES: CC(=O)Nc1cc(CO[Si](C)(C)C(C)(C)C)cc(NC(=O)c2ccc(C(=O)Nc3cccc(NC(=O)CCCN(C)C)c3)cc2)c1
- growth at 0.01 µM [1]: 101%
- growth at 0.01 µM [2]: 102%
- growth at 0.01 µM [3]: 100%
- growth at 0.01 µM [4]: 93%
- growth at 0.1 µM [5]: 100%
- growth at 0.1 µM [6]: 94%
- growth at 0.1 µM [7]: 102%
- growth at 0.1 µM [8]: 95%
- growth at 0.1 µM [9]: 94%
- growth at 1 µM [10]: 95%
- growth at 1 µM [11]: 91%
- growth at 1 µM [12]: 112%
- growth at 1 µM [13]: 81%
- growth at 1 µM [14]: 111%
- growth at 100 µM [15]: 104%
- growth at 100 µM [16]: 116%
- growth at 100 µM [17]: 82%
- growth at 100 µM [18]: 87%
- growth at 100 µM [19]: 86%
- growth at 100 µM [20]: 80%
- growth at 100 µM [21]: 75%
- growth at 100 µM [22]: 91%
- growth at 100 µM [23]: 89%
- GI50 ([24]; read-out: GI50): > 75 µM
- CC50 [24, 33]: > 75 µM
- TGI ([24]; read-out: TGI): > 75 µM
- GI50 ([24]; read-out: pGI50 (converted)): > 75.9 µM
- CC50 [24, 34]: > 75.9 µM
- TGI ([24]; read-out: pTGI (converted)): > 75.9 µM
- GI50 ([25]; read-out: GI50): > 75 µM
- CC50 [25, 33]: > 75 µM
- TGI ([25]; read-out: TGI): > 75 µM
- GI50 ([25]; read-out: pGI50 (converted)): > 75.9 µM
- CC50 [25, 34]: > 75.9 µM
- TGI ([25]; read-out: pTGI): > 75.9 µM
- GI50 ([26]; read-out: GI50): > 75 µM
- CC50 [26, 33]: > 75 µM
- TGI ([26]; read-out: TGI): > 75 µM
- GI50 ([26]; read-out: pGI50 (converted)): > 75.9 µM
- CC50 [26, 34]: > 75.9 µM
- TGI ([26]; read-out: pTGI): > 75.9 µM
- GI50 ([27]; read-out: GI50): > 75 µM
- CC50 [27, 33]: > 75 µM
- TGI ([27]; read-out: TGI): > 75 µM
- GI50 ([27]; read-out: pGI50 (converted)): > 75.9 µM
- CC50 [27, 34]: > 75.9 µM
- TGI ([27]; read-out: pTGI): > 75.9 µM
- GI50 ([28]; read-out: GI50): > 75 µM
- LC50 ([28]; read-out: LC50): > 75 µM
- TGI ([28]; read-out: TGI): > 75 µM
- GI50 ([28]; read-out: pGI50 (converted)): > 75.9 µM
- LC50 ([28]; read-out: pLC50 (converted)): > 75.9 µM
- TGI ([28]; read-out: pTGI): > 75.9 µM
- GI50 ([29]; read-out: GI50): > 75 µM
- CC50 [29, 33]: > 75 µM
- TGI ([29]; read-out: TGI): > 75 µM
- GI50 ([29]; read-out: pGI50 (converted)): > 75.9 µM
- CC50 [29, 34]: > 75.9 µM
- TGI ([29]; read-out: pTGI): > 75.9 µM
- GI50 ([30]; read-out: GI50): > 75 µM
- LC50 ([30]; read-out: LC50): > 75 µM
- TGI ([30]; read-out: TGI): > 75 µM
- GI50 ([30]; read-out: pGI50 (converted)): > 75.9 µM
- LC50 ([30]; read-out: pLC50 (converted)): > 75.9 µM
- TGI ([30]; read-out: pTGI): > 75.9 µM
- GI50 ([31]; read-out: GI50): > 75 µM
- CC50 [31, 33]: > 75 µM
- TGI ([31]; read-out: TGI): > 75 µM
- GI50 ([31]; read-out: pGI50 (converted)): > 75.9 µM
- CC50 [31, 34]: > 75.9 µM
- TGI ([31]; read-out: pTGI): > 75.9 µM
- GI50 ([32]; read-out: GI50): > 75 µM
- CC50 [32, 33]: > 75 µM
- TGI ([32]; read-out: TGI): > 75 µM
- GI50 ([32]; read-out: pGI50 (converted)): > 75.9 µM
- CC50 [32, 34]: > 75.9 µM
- TGI ([32]; read-out: pTGI): > 75.9 µM
